Test results as given in patent publication US20110190309A1, “PHARMACEUTICAL PRODUCT COMPRISING A […] RECEPTOR ANTAGONIST AND A Beta2-ADRENOCEPTOR AGONIST” (priority 2008, published 2011).
Where a name gives a salt, the structure may show the parent alone.

Legend:
guinea pig trachea = experiment: Bronchodilator activity in the guinea pig isolated tracheal ring preparation; settings: 10 nM; methacholine 1 μM; 60 min; mean±s.e.mean
Description: Guinea pigs (300-500 g) were killed by cervical dislocation and the trachea was isolated. The trachea was cut into segments 2-3 cartilage rings in width and suspended in 10 ml organ baths in modified Krebs' solution (mM; NaCl, 90; NaHCO3, 45; KCl, 5; MgSO4.7H2O, 0.5; Na2HPO4.2H2O, 1; CaCl2, 2.25; glucose, 10; pH 7.4 gassed with 5% CO2, 95% O2 at 37° C.). The tracheal rings were attached to an isometric force transducer for the measurement of isometric tension. The tissues were washed and a force of 1 g was applied to each tissue. The rings were contracted with methacholine (1 μM). Once the contraction had reached a plateau, vehicle (0.01% DMSO in distilled H2O), indacaterol (10 nM), N-[2-(Diethylamino)ethyl]-N-(2-{[2-(4-hydroxy-2-oxo-2,3-dihydro-1,3-benzothiazol-7-yl)ethyl]amino}ethyl)-3-[2-(1-naphthyl)ethoxy]propanamide dihydrobromide (10 nM), N-Cyclohexyl-N^3-[2-(3-fluorophenyl)ethyl]-N-(2-{[2-(4-hydroxy-2-oxo-2,3-dihydro-1,3-benzothiazol-7-yl)ethyl]amino}ethyl)-(3-alaninamide di-D-mandelate salt (1 nM), (R)-3-(1-Phenyl-cycloheptanecarbonyloxy)-1-(pyridin-2-ylcarbamoylmethyl)-1-azonia-bicyclo[2.2.2]octane bromide (1 nM), a combination of (R)-3-(1-Phenyl-cycloheptanecarbonyloxy)-1-(pyridin-2-ylcarbamoylmethyl)-1-azonia-bicyclo[2.2.2]octane bromide (1 nM) and indacaterol (10 nM), a combination of N-[2-(Diethylamino)ethyl]-N-(2-{[2-(4-hydroxy-2-oxo-2,3-dihydro-1,3-benzothiazol-7-yl)ethyl]amino}ethyl)-3-[2-(1-naphthyl)ethoxy]propanamide dihydrobromide (10 nM) and (R)-3-(1-Phenyl-cycloheptanecarbonyloxy)-1-(pyridin-2-ylcarbamoylmethyl)-1-azonia-bicyclo[2.2.2]octane bromide (1 nM) and, or a combination of N-Cyclohexyl-N^3-[2-(3-fluorophenyl)ethyl]-N-(2-{[2-(4-hydroxy-2-oxo-2,3-dihydro-1,3-benzothiazol-7-yl)ethyl]amino}ethyl)-β-alaninamide di-D-mandelate salt (1 nM) and (R)-3-(1-Phenyl-cycloheptanecarbonyloxy)-1-(pyridin-2-ylcarbamoylmethyl)-1-azonia-bicyclo[2.2.2]octane bromide (1 nM) was added and the tissue left for 60 min. The tension was measured in each ring at 60 min following compound addition and was expressed as a % relaxation of the constriction to methacholine (1 μM) (mean±s.e.mean). Data were collected using the Chart 4 software (ADInstruments, Charlgrove, UK).

β2 = molecular target: T1, β2 (Homo sapiens, UniProt P07550); experiment: Adrenergic β2 mediated cAMP production in H292 cells (AlphaScreen); assay type: cell-based; settings: Intrinsic Activity as a fraction relative to the maximum activity of formoterol
T1 construct: endogenous in cells; host or cells: H292 cells
Description: H292 cells were grown in 225 cm2 flasks incubator at 37° C., 5% CO2 in RPMI medium containing, 10% (v/v) FBS (foetal bovine serum) and 2 mM L-glutamine.
Adherent H292 cells were removed from tissue culture flasks by treatment with Accutase™ cell detachment solution for 15 minutes. Flasks were incubated for 15 minutes in a humidified incubator at 37° C., 5% CO2. Detached cells were re-suspended in RPMI media (containing 10% (v/v) FBS and 2 mM L-glutamine) at 0.05×10^6 cells per mL. 5000 cells in 100 μL were added to each well of a tissue-culture-treated 96-well plate and the cells incubated overnight in a humidified incubator at 37° C., 5% CO2. The culture media was removed and cells were washed twice with 100 μL assay buffer and replaced with 50 μL assay buffer (HBSS solution containing 10 mM HEPES pH7.4 and 5 mM glucose). Cells were rested at room temperature for 20 minutes after which time 25 μL of rolipram (1.2 mM made up in assay buffer containing 2.4% (v/v) dimethylsulphoxide) was added. Cells were incubated with rolipram for 10 minutes after which time Compound A was added and the cells were incubated for 60 minutes at room temperature. The final rolipram concentration in the assay was 300 μM and final vehicle concentration was 1.6% (v/v) dimethylsulphoxide. The reaction was stopped by removing supernatants, washing once with 100 μL assay buffer and replacing with 50 μL lysis buffer. The cell monolayer was frozen at −80° C. for 30 minutes (or overnight).
The concentration of cAMP (cyclic adenosine monophosphate) in the cell lysate was determined using AlphaScreen™ methodology. […] The AlphaScreen™ signal was measured using an EnVision spectrophotometer (Perkin-Elmer Inc.) with the recommended manufacturer's settings. cAMP concentrations were determined by reference to a calibration curve determined in the same experiment using standard cAMP concentrations. […] Intrinsic Activity was expressed as a fraction relative to the maximum activity determined for formoterol in each experiment.

T1 sequence (P07550 whole entry): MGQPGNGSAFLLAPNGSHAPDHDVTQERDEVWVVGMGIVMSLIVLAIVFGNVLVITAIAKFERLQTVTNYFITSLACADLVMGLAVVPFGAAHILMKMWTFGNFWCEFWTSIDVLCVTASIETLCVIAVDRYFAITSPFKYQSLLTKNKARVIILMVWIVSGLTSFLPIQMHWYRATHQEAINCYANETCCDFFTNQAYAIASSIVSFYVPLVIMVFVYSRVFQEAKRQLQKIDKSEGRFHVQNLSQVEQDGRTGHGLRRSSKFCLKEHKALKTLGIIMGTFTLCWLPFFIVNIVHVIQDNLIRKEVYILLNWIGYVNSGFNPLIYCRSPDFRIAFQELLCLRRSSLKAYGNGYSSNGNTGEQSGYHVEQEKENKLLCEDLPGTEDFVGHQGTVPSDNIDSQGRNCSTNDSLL

Structure (SMILES)	percentage relaxation of the constriction to methacholine (guinea pig trachea)	β2 Int Act (β2)
CCN(CC)CCN(CCNCCc1ccc(O)c2[nH]c(=O)sc12)C(=O)CCOCCc1cccc2ccccc12 [BA1, N-[2-(Diethylamino)ethyl]-N-(2-{[2-(4-hydroxy-2-oxo-2,3-dihydro-1,3-benzothiazol-7-yl)ethyl]amino}ethyl)-3-[2-(1-naphthyl)ethoxy]propanamide dihydrobromide]	18±11.2%	0.8
O=c1[nH]c2c(O)ccc([C@@H](O)CNCCSCCCNCCc3ccccc3Cl)c2s1 [BA3, 7-[(1R)-2-({2-[(3-{[2-(2-Chlorophenyl)ethyl]amino}propyl)thio]ethyl}amino)-1-hydroxyethyl]-4-hydroxy-1,3-benzothiazol-2(3H)-one dihydrobromide]		0.8
